{"source": "patent US20250041461A1", "about": "“[177LU] LUTETIUM-PSMA I&T COMPOSITION AND DOSIMETRY, KIT, METHOD OF MAKING, AND METHOD OF USING THEREOF” (Curium US LLC, priority 2023, published 2025)", "key": {"[1]": {"settings": "cited from earlier work"}, "[2]": {"test": "Radiochemical purity of formulated ^177Lu-PSMA I&T solution by HPLC (stability over time)", "assay_type": "physicochemical", "procedure": "pH was estimated by pH paper. Radioactivity was measured in a dose calibrator. Radiochemical purity was determined by liquid chromatography with radioactivity detection and thin layer chromatography.\nRadiochemical impurities are quantified by chromatographical methods (HPLC and TLC). Radiochemical purity determined by HPLC must not be less than 95.0%\nThe radiochemical purity and chemical properties (pH, impurities, visual properties) of [^177Lu]Lu-PSMA I&T in the formulation composition 3 were tested on the seven batches over a time span of 70 to 72 hours from the end-of-synthesis time. Stability samples of typical therapeutic dose radioactivity and volume were stored in different conditions covering typical storage, shipment and usage of the product, including temperatures ranging from +5° C. to +40° C.\nRadiochemical purity of each solution was followed by HPLC up to 71-93 hours post-radiolabeling. All solutions were stored at 22.5° C.\nSample Analysis: The pH, radioactivity concentration (RAC), PSMA I&T content, and radiochemical purity (RCP) of the formulations were determined using a variety of analytical techniques described in the following sub-sections. A detailed record of the steps performed for each analysis can be found in Attachment 1-4.\nBoth the determination of the assay for PSMA I&T and related substances and the RCP of the formulations were determined via HPLC analysis. The system suitability of the instrument was established by triplicate injections of a 15 ppm PSMA I&T standard prior to sample analysis and a single 15 ppm check standard every 10 sample injections. A five-point standard curve of PSMA I&T concentrations between 0.5 and 25 ppm was used to determine the PSMA I&T concentration in the formulations."}}, "note": "Where two headings read alike, the source gives them in different places.", "data": [{"smiles": "O=C([O-])CC[C@H](NC(=O)N[C@@H](CCCCNC(=O)CCCCCCC(=O)NCCCC[C@@H](NC(=O)[C@@H](Cc1ccccc1)NC(=O)[C@@H](Cc1ccc(O)c(I)c1)NC(=O)CC[C@H](C(=O)[O-])N1CCN(CC(=O)[O-])CCN(CC(=O)[O-])CCN(CC(=O)[O-])CC1)C(=O)[O-])C(=O)[O-])C(=O)[O-].[177Lu+3].[H+].[H+].[H+].[H+].[H+]", "note": "[^177Lu-PSMA I&T, (3S,7S,26R,29R,32R,37R)-29-benzyl-32-(4-hydroxy-3-iodobenzyl)-5,13,20,28,31,34-hexaoxo-37-(4,7,10-tris(carboxymethyl)-1,4,7,10-tetraazacyclododecan-1-yl)-4,6,12,21,27,30,33-heptaazaheptatriacontane-1,3,7,26,37-pentacarboxylic acid; lutetium-177 (III)]", "values": [{"measurement": "Absorbed Dose for Tumor Lesions, Lymph node metastases, Mean ± SD", "setting": "[1]; Overall, n 8", "result": "3.2 ± 2.2", "unit": "Gy/GBq"}, {"measurement": "Absorbed Dose for Tumor Lesions, Lymph node metastases, Range", "setting": "[1]; Overall, n 8", "result": "1.63-8.46 Gy/GBq"}, {"measurement": "Absorbed Dose for Tumor Lesions, Bone metastases, Mean ± SD", "setting": "[1]; Overall, n 74", "result": "3.4 ± 2.7", "unit": "Gy/GBq"}, {"measurement": "Absorbed Dose for Tumor Lesions, Bone metastases, Range", "setting": "[1]; Overall, n 74", "result": "0.22-12.03 Gy/GBq"}, {"measurement": "Absorbed Dose for Tumor Lesions, All metastases, Mean ± SD", "setting": "[1]; Overall, n 93", "result": "3.2 ± 2.6", "unit": "Gy/GBq"}, {"measurement": "Absorbed Dose for Tumor Lesions, All metastases, Range", "setting": "[1]; Overall, n 93", "result": "0.22-12.03 Gy/GBq"}, {"measurement": "Absorbed Dose for Tumor Lesions, Lung metastases, Mean ± SD", "setting": "[1]; Second cycle, n 1", "result": 1.3, "unit": "Gy/GBq"}, {"measurement": "Absorbed Dose for Tumor Lesions, Liver metastases, Mean ± SD", "setting": "[1]; Second cycle, n 2", "result": 0.94, "unit": "Gy/GBq"}, {"measurement": "Absorbed Dose for Tumor Lesions, Liver metastases, Range", "setting": "[1]; Second cycle, n 2", "result": "0.70-1.17 Gy/GBq"}, {"measurement": "Absorbed Dose for Tumor Lesions, Lymph node metastases, Mean ± SD", "setting": "[1]; Second cycle, n 2", "result": 5.2, "unit": "Gy/GBq"}, {"measurement": "Absorbed Dose for Tumor Lesions, Lymph node metastases, Range", "setting": "[1]; Second cycle, n 2", "result": "1.98-8.46 Gy/GBq"}, {"measurement": "Absorbed Dose for Tumor Lesions, Bone metastases, Mean ± SD", "setting": "[1]; Second cycle, n 21", "result": "3.4 ± 2.4", "unit": "Gy/GBq"}, {"measurement": "Absorbed Dose for Tumor Lesions, Bone metastases, Range", "setting": "[1]; Second cycle, n 21", "result": "1.03-9.59 Gy/GBq"}, {"measurement": "Absorbed Dose for Tumor Lesions, All metastases, Mean ± SD", "setting": "[1]; Second cycle, n 26", "result": "3.3 ± 2.5", "unit": "Gy/GBq"}, {"measurement": "Absorbed Dose for Tumor Lesions, All metastases, Range", "setting": "[1]; Second cycle, n 26", "result": "0.70-8.46 Gy/GBq"}, {"measurement": "Absorbed Dose, Kidneys, Mean ± SD", "setting": "[1]; Second cycle", "result": "0.75 ± 0.19", "unit": "Gy/GBq"}, {"measurement": "Absorbed Dose, Kidneys, Range", "setting": "[1]; Second cycle", "result": "0.44-1.01 Gy/GBq"}, {"measurement": "Absorbed Dose, Lacrimal glands, Mean ± SD", "setting": "[1]; Second cycle", "result": "4.1 ± 1.1", "unit": "Gy/GBq"}, {"measurement": "Absorbed Dose, Lacrimal glands, Range", "setting": "[1]; Second cycle", "result": "2.44-5.56 Gy/GBq"}, {"measurement": "Absorbed Dose, Liver, Mean ± SD", "setting": "[1]; Second cycle", "result": "0.13 ± 0.05", "unit": "Gy/GBq"}, {"measurement": "Absorbed Dose, Liver, Range", "setting": "[1]; Second cycle", "result": "0.08-0.21 Gy/GBq"}, {"measurement": "Absorbed Dose, Parotid glands, Mean ± SD", "setting": "[1]; Second cycle", "result": 0.59, "unit": "Gy/GBq"}, {"measurement": "Absorbed Dose, Parotid glands, Range", "setting": "[1]; Second cycle", "result": "0.47-0.80 Gy/GBq"}, {"measurement": "Absorbed Dose, Submandibular glands, Mean ± SD", "setting": "[1]; Second cycle", "result": "0.71 ± 0.42", "unit": "Gy/GBq"}, {"measurement": "Absorbed Dose, Submandibular glands, Range", "setting": "[1]; Second cycle", "result": "0.40-1.70 Gy/GBq"}, {"measurement": "Effective Dose, Whole body, Mean ± SD", "setting": "[1]; Second cycle", "result": 0.06, "unit": "Sv/GBq"}, {"measurement": "Effective Dose, Whole body, Range", "setting": "[1]; Second cycle", "result": "0.03-0.11 Sv/GBq"}, {"measurement": "Absorbed Dose for Tumor Lesions, Lung metastases, Mean ± SD", "setting": "[1]; Third cycle, n 1", "result": 0.94, "unit": "Gy/GBq"}, {"measurement": "Absorbed Dose for Tumor Lesions, Lymph node metastases, Mean ± SD", "setting": "[1]; Third cycle, n 1", "result": 2.6, "unit": "Gy/GBq"}, {"measurement": "Absorbed Dose for Tumor Lesions, Lymph node metastases, Range", "setting": "[1]; Third cycle, n 1", "result": 18.87, "unit": "Gy/GBq"}, {"measurement": "Absorbed Dose for Tumor Lesions, Liver metastases, Mean ± SD", "setting": "[1]; Third cycle, n 2", "result": 0.95, "unit": "Gy/GBq"}, {"measurement": "Absorbed Dose for Tumor Lesions, Liver metastases, Range", "setting": "[1]; Third cycle, n 2", "result": "0.47-1.42 Gy/GBq"}, {"measurement": "Absorbed Dose for Tumor Lesions, Bone metastases, Mean ± SD", "setting": "[1]; Third cycle, n 10", "result": "3.2 ± 2.5", "unit": "Gy/GBq"}, {"measurement": "Absorbed Dose for Tumor Lesions, Bone metastases, Range", "setting": "[1]; Third cycle, n 10", "result": "1.11-7.99 Gy/GBq"}, {"measurement": "Absorbed Dose for Tumor Lesions, All metastases, Mean ± SD", "setting": "[1]; Third cycle, n 14", "result": "2.7 ± 2.3", "unit": "Gy/GBq"}, {"measurement": "Absorbed Dose for Tumor Lesions, All metastases, Range", "setting": "[1]; Third cycle, n 14", "result": "0.94-7.99 Gy/GBq"}, {"measurement": "Absorbed Dose, Kidneys, Mean ± SD", "setting": "[1]; Third cycle", "result": "0.73 ± 0.22", "unit": "Gy/GBq"}, {"measurement": "Absorbed Dose, Kidneys, Range", "setting": "[1]; Third cycle", "result": "0.42-0.93 Gy/GBq"}, {"measurement": "Absorbed Dose, Lacrimal glands, Mean ± SD", "setting": "[1]; Third cycle", "result": "3.5 ± 1.4", "unit": "Gy/GBq"}, {"measurement": "Absorbed Dose, Lacrimal glands, Range", "setting": "[1]; Third cycle", "result": "2.41-5.04 Gy/GBq"}, {"measurement": "Absorbed Dose, Liver, Mean ± SD", "setting": "[1]; Third cycle", "result": "0.12 ± 0.06", "unit": "Gy/GBq"}, {"measurement": "Absorbed Dose, Liver, Range", "setting": "[1]; Third cycle", "result": "0.07-0.21 Gy/GBq"}, {"measurement": "Absorbed Dose, Parotid glands, Mean ± SD", "setting": "[1]; Third cycle", "result": 0.49, "unit": "Gy/GBq"}, {"measurement": "Absorbed Dose, Parotid glands, Range", "setting": "[1]; Third cycle", "result": "0.32-0.64 Gy/GBq"}, {"measurement": "Absorbed Dose, Submandibular glands, Mean ± SD", "setting": "[1]; Third cycle", "result": "0.83 ± 0.59", "unit": "Gy/GBq"}, {"measurement": "Absorbed Dose, Submandibular glands, Range", "setting": "[1]; Third cycle", "result": "0.33-1.68 Gy/GBq"}, {"measurement": "Effective Dose, Whole body, Mean ± SD", "setting": "[1]; Third cycle", "result": 0.06, "unit": "Sv/GBq"}, {"measurement": "Effective Dose, Whole body, Range", "setting": "[1]; Third cycle", "result": "0.03-0.10 Sv/GBq"}, {"measurement": "mean whole-body effective dose", "setting": "[1]; all cycles", "result": "0.41±0.18", "unit": "Sv"}, {"measurement": "mean whole-body effective dose per GBq", "setting": "[1]; all cycles", "result": 0.06, "unit": "Sv/GBq"}, {"measurement": "radiochemical purity by HPLC", "setting": "[2]; 10 ml high RAC formulation, 42.5 mg/ml ascorbic acid, 0 hours post EOS", "result": "at least 99%"}, {"measurement": "radiochemical purity by HPLC", "setting": "[2]; 10 ml high RAC formulation, 42.5 mg/ml ascorbic acid, 46 hours post EOS", "result": "at least 93.3%"}, {"measurement": "radiochemical purity by HPLC", "setting": "[2]; 20 ml low RAC formulation, 31 mg/ml ascorbic acid, 0 hours post EOS", "result": "at least 99.1%"}, {"measurement": "radiochemical purity", "setting": "[2]; decreased strength (0.5 GBq/mL), 72 hours post-end-of-synthesis", "result": "above 95%"}, {"measurement": "radiochemical stability among the formulations of Example 3", "setting": "[2]; low RAC solution of pH 4.5 and ascorbic acid concentration of 31 mg/ml", "result": "highest radiochemical stability"}]}]}
